Tests used:
Type in all cases: functional
SF-268 = test: Anticancer activity against human SF268 cells assessed as growth at 100 uM after 48 hrs by SRB protein assay relative to control; conditions: SF-268, 48 h, read-out: Activity
T47D = test: Growth inhibition of human T47D cells after 48 hrs by SRB protein assay
NCI/ADR-RES = test: Growth inhibition of human NCI/ADR-RES cells after 48 hrs by SRB protein assay
OVCAR-8 = test: Growth inhibition of human OVCAR8 cells after 48 hrs by SRB protein assay; conditions: OVCAR-8, 48 h
[1] = Growth inhibition of human NCL-H322M cells after 48 hrs by SRB protein assay
MDA-MB-231 = test: Growth inhibition of human MDA-MB-231 cells after 48 hrs by SRB protein assay; conditions: MDA-MB-231, 48 h
MDA-MB-435 = test: Growth inhibition of human MDA-MB-435 cells after 48 hrs by SRB protein assay; conditions: MDA-MB-435, 48 h
UACC-257 = test: Growth inhibition of human UACC257 cells after 48 hrs by SRB protein assay; conditions: UACC-257, 48 h
786-0 = test: Growth inhibition of human 786-0 cells after 48 hrs by SRB protein assay; conditions: 786-0, 48 h
HCT-116 = test: Growth inhibition of human HCT116 cells after 48 hrs by SRB protein assay; conditions: HCT-116, 48 h
KM12 = test: Growth inhibition of human KM12 cells after 48 hrs by SRB protein assay; conditions: KM12, 48 h
MCF7 [2] = test: Anticancer activity against human MCF7 cells assessed as growth at 100 uM after 48 hrs by SRB protein assay relative to control; conditions: MCF7, 48 h, read-out: Activity
EKVX = test: Growth inhibition of human EKVX cells after 48 hrs by SRB protein assay
UO-31 = test: Growth inhibition of human UO31 cells after 48 hrs by SRB protein assay; conditions: UO-31, 48 h
MCF7 [3] = test: Growth inhibition of human MCF7 cells after 48 hrs by SRB protein assay; conditions: MCF7, 48 h
TK-10 = test: Growth inhibition of human TK10 cells after 48 hrs by SRB protein assay; conditions: TK-10, 48 h
U-251 = test: Growth inhibition of human U251 cells after 48 hrs by SRB protein assay; conditions: U-251, 48 h
OVCAR-3 = test: Growth inhibition of human OVCAR-3 cells after 48 hrs by SRB protein assay; conditions: OVCAR-3, 48 h
NCI-H460 = test: Anticancer activity against human NCL-H460 cells assessed as growth at 100 uM after 48 hrs by SRB protein assay relative to control; conditions: NCI-H460, 48 h, read-out: Activity
OVCAR-5 = test: Growth inhibition of human OVCAR5 cells after 48 hrs by SRB protein assay; conditions: OVCAR-5, 48 h
HT-29 = test: Growth inhibition of human HT29 cells after 48 hrs by SRB protein assay; conditions: HT-29, 48 h
SF-539 = test: Growth inhibition of human SF539 cells after 48 hrs by SRB protein assay; conditions: SF-539, 48 h
OVCAR-4 = test: Growth inhibition of human OVCAR4 cells after 48 hrs by SRB protein assay; conditions: OVCAR-4, 48 h
DU-145 = test: Growth inhibition of human DU145 cells after 48 hrs by SRB protein assay; conditions: DU-145, 48 h
SK-MEL-28 = test: Growth inhibition of human SK-MEL-28 cells after 48 hrs by SRB protein assay; conditions: SK-MEL-28, 48 h
Hs-578T = test: Growth inhibition of human HS578T cells after 48 hrs by SRB protein assay
SF-295 = test: Growth inhibition of human SF295 cells after 48 hrs by SRB protein assay; conditions: SF-295, 48 h
SW-620 = test: Growth inhibition of human SW620 cells after 48 hrs by SRB protein assay; conditions: SW-620, 48 h
SK-MEL-2 = test: Growth inhibition of human SK-MEL-2 cells after 48 hrs by SRB protein assay; conditions: SK-MEL-2, 48 h
IGROV-1 = test: Growth inhibition of human IGROV1 cells after 48 hrs by SRB protein assay; conditions: IGROV-1, 48 h
SN12C = test: Growth inhibition of human SN12C cells after 48 hrs by SRB protein assay
SNB-75 = test: Growth inhibition of human SNB75 cells after 48 hrs by SRB protein assay; conditions: SNB-75, 48 h
CAKI-1 = test: Growth inhibition of human CAKI1 cells after 48 hrs by SRB protein assay; conditions: CAKI-1, 48 h
[4] = read-out: LC50 (the source's name)

With `Clc1nc(Cl)c2ncn(Cc3ccc(Cn4cnc5c(Cl)nc(Cl)nc54)cc3)c2n1` the growth at 100 µM (SF-268) was 58%, the GI50 (T47D) was 1.62 µM and the LC50 (T47D) was 42.6 µM. The TGI (T47D) was 13.5 µM, the GI50 (NCI/ADR-RES) was 13.8 µM and the LC50 (NCI/ADR-RES) was 60.2 µM. The TGI (NCI/ADR-RES) was 28.8 µM, the GI50 (OVCAR-8) was 3.02 µM and the LC50 (OVCAR-8) was 49 µM. The TGI (OVCAR-8) was 8.13 µM, the TGI [1] was 33.9 µM and the CC50 [1, 4] was 91.2 µM. It also gave an LC50 (50% lethal concentration) (MDA-MB-231) of 46.8 µM, a TGI (MDA-MB-231) of 21.9 µM and a GI50 (MDA-MB-435) of 16.6 µM. The LC50 (MDA-MB-435) was 61.7 µM, the TGI (MDA-MB-435) was 31.6 µM and the TGI (UACC-257) was 25.1 µM. The CC50 (UACC-257; [4]) was 50.1 µM, the GI50 (786-0) was 14.5 µM and the TGI (786-0) was 27.5 µM. The CC50 (786-0; [4]) was 52.5 µM, the GI50 (HCT-116) was 9.33 µM and the TGI (HCT-116) was 21.4 µM. The CC50 (HCT-116; [4]) was 46.8 µM, the GI50 (KM12) was 14.1 µM and the LC50 (concentration killing 50% of cells) (KM12) was 52.5 µM. It also gave a TGI (KM12) of 27.5 µM, a growth at 100 µM (MCF7 [2]) of 0% and a GI50 (EKVX) of under 0.01 µM. The LC50 (EKVX) was 44.7 µM, the TGI (EKVX) was 19.9 µM and the GI50 (UO-31) was 10 µM. It also gave an LC50 (UO-31) of 46.8 µM, a TGI (UO-31) of 21.4 µM and a GI50 (MCF7 [3]) of 10.5 µM. For the same compound, the LC50 (MCF7 [3]) was 61.7 µM, the TGI (MCF7 [3]) was 25.1 µM and the GI50 (TK-10) was 13.2 µM. For the same compound, the LC50 (50% lethal concentration) (TK-10) was 51.3 µM, the TGI (TK-10) was 26.3 µM and the GI50 (U-251) was 13.8 µM. For the same compound, the TGI (U-251) was 26.9 µM, the CC50 (U-251; [4]) was 51.3 µM and the GI50 (OVCAR-3) was 13.5 µM. For the same compound, the LC50 (OVCAR-3) was 51.3 µM, the TGI (OVCAR-3) was 26.3 µM and the growth at 100 µM (NCI-H460) was 0%. For the same compound, the TGI (OVCAR-5) was 26.3 µM, the CC50 (OVCAR-5; [4]) was 51.3 µM and the GI50 (HT-29) was under 0.01 µM. For the same compound, the LC50 (HT-29) was 39.8 µM, the TGI (HT-29) was 15.8 µM and the LC50 (SF-539) was 37.1 µM. The TGI (SF-539) was 13.8 µM, the GI50 (OVCAR-4) was 14.3 µM and the LC50 (OVCAR-4) was 52.5 µM. The TGI (OVCAR-4) was 27.5 µM, the GI50 (DU-145) was under 0.01 µM and the TGI (DU-145) was 4.16 µM. The CC50 (DU-145; [4]) was 26.3 µM, the GI50 (SK-MEL-28) was under 0.01 µM and the LC50 (SK-MEL-28) was 42.6 µM. The TGI (SK-MEL-28) was 18.2 µM, the GI50 (Hs-578T) was under 0.01 µM and the LC50 (concentration killing 50% of cells) (Hs-578T) was 43.6 µM. The TGI (Hs-578T) was 16.2 µM, the GI50 (SF-295) was 19.1 µM and the LC50 (SF-295) was 85.1 µM. It also gave a TGI (SF-295) of 40.7 µM, a GI50 (SW-620) of under 0.01 µM and a TGI (SW-620) of 2.63 µM. The CC50 (SW-620; [4]) was 8.31 µM, the TGI (SK-MEL-2) was 23.4 µM and the CC50 (SK-MEL-2; [4]) was 49 µM. It also gave a GI50 (IGROV-1) of 12.9 µM, an LC50 (50% lethal concentration) (IGROV-1) of 50.1 µM and a TGI (IGROV-1) of 25.1 µM. For the same compound, the GI50 (SN12C) was 14.1 µM, the LC50 (SN12C) was 52.5 µM and the TGI (SN12C) was 27.5 µM. The GI50 (SNB-75) was under 0.01 µM, the TGI (SNB-75) was 17 µM and the CC50 (SNB-75; [4]) was 41.7 µM. It also gave a GI50 (CAKI-1) of 15.8 µM, a TGI (CAKI-1) of 30.2 µM and a CC50 (CAKI-1; [4]) of 57.5 µM.

Source: ChEMBL document CHEMBL1143809, “New bis-N9-(methylphenylmethyl)purine derivatives: synthesis and antitumor activity” (2007)
